Our source for the action fongicide values is patent publication EP0411111B1, “AMMONIUM COMPOUND, COMPOSITION CONTAINING IT AND DESINFECTION METHOD” (FABRICOM AIR CONDITIONING S.A., priority 1989, dated 1990).

The subject of assay [1] is Trichophyton rubrum. As to the kind of experiment: fungicidal test on fungal strains found around pools. In kind it is cell-based. As to conditions: in 24 heures; dissolved in water at a concentration below 50 ppm with 30 ppm Cu and 100 ppb Ag.
The test system of assay [2] is Chrysosporium Keratinophilium. Described as above. Format: cell-based. As to conditions: in 24 heures; dissolved in water at a concentration below 50 ppm with 30 ppm Cu and 100 ppb Ag.

SMILES strings stand for the structures.

On to `CCCCCCCCCCCCCCCC[N+](C)(C)CCCCCC[N+](C)(C)c1ccc(NC(=N)NC(=N)Nc2ccc([N+](C)(C)CCCCCC[N+](C)(C)CCCCCCCCCCCCCCCC)cc2)cc1` [exemple 30], for which the action fongicide entry in assay [1] and in assay [2] was “action fongicide” in each case.
